From patent US20230391730A1, “INHIBITORS OF THE BROMODOMAIN PHD FINGER TRANSCRIPTION FACTOR (BPTF) AS ANTI-CANCER AGENTS” (Regents of the University of Minnesota, priority 2020, published 2023)
“Also recorded” adds a separate entry of the source.

How the values were obtained:
4T1 cells [1] = experiment: Inhibitor toxicity in 4T1 cells (MTS assay); format: cell-based, mouse; conditions: inhibitor alone
Procedure: (§1) Cell culture methods. 4T1 cells were grown to a confluency of 50-60% using media containing DMEM with 10% fetal bovine serum (FES), 2 mM glutamine and penicillin-streptomycin. 4T1 cells with snRNA-mediated BPTF knockdown (KD) were prepared as described previously. For NURF inhibitor toxicity study, 4000 cells/well were seeded in a 96-well plate and allowed to adhere overnight. The next day, 10 different dilutions of inhibitors were prepared starting with a highest concentration of 1.0 mM and further serially diluted 10 times to get the lowest concentration of 1.95 μM. Cells were treated with the inhibitors in complete media for 4 days. Thereafter, the MTS reagent was prepared using the CellTitre 96 aqueous MTS reagent (Promega, Cat #G1111) and phenazine methosulphate (Sigma, Cat #P9625). The MTS assay was performed as per manufacturer's protocol and the absorbance was recorded at a wavelength of 490 nm. Fraction cell survival was calculated using untreated control cells to indicate complete survival (1.0) and blank solutions as 0.0 survival. The data was derived from three independent experiments (N=3) and fraction survival was plotted as mean fraction survival±SEM using GraphPad Prism software. […] Fraction survival was measured and calculated by MIS assay as mentioned above.

4T1 cells [2] = experiment: Combination with doxorubicin in 4T1 cells (MTS assay); format: cell-based, mouse; conditions: for sensitization of 4T1 cells to doxorubicin: 50 nM doxorubicin
Procedure: Cell culture methods. 4T1 cells were grown to a confluency of 50-60% using media containing DMEM with 10% fetal bovine serum (FES), 2 mM glutamine and penicillin-streptomycin. 4T1 cells with snRNA-mediated BPTF knockdown (KD) were prepared as described previously. For NURF inhibitor toxicity study, 4000 cells/well were seeded in a 96-well plate and allowed to adhere overnight. The next day, 10 different dilutions of inhibitors were prepared starting with a highest concentration of 1.0 mM and further serially diluted 10 times to get the lowest concentration of 1.95 μM. Cells were treated with the inhibitors in complete media for 4 days. Thereafter, the MTS reagent was prepared using the CellTitre 96 aqueous MTS reagent (Promega, Cat #G1111) and phenazine methosulphate (Sigma, Cat #P9625). The MTS assay was performed as per manufacturer's protocol and the absorbance was recorded at a wavelength of 490 nm. Fraction cell survival was calculated using untreated control cells to indicate complete survival (1.0) and blank solutions as 0.0 survival. The data was derived from three independent experiments (N=3) and fraction survival was plotted as mean fraction survival±SEM using GraphPad Prism software. For checking the toxicity on wildtype and BPTF knockdown cells, three doses were selected for each inhibitor based on theft toxicity curves and treated for 4 days alone or in combination with 50 nM doxorubicin. Fraction survival was measured and calculated by MIS assay as mentioned above.

[3] = tested on: 4T1 cells with shRNA-mediated BPTF knockdown; experiment: Inhibitors with doxorubicin in BPTF knockdown 4T1 cells; format: cell-based, mouse
Procedure: as §1

Sfn = experiment: RT-qPCR of BPTF regulated genes in Eph4 cells, Sfn; format: cell-based, murine; conditions: 5 μM, 24 h, relative to DMSO
Procedure: qPCR methods. Eph4 cells were treated for 24 h and harvested in trizol. RNA extraction was carried out via chloroform extractions. cDNA creation was completed via SuperScript III cDNA creation kit (Invitrogen, #12574026). All qpcrs are normalized to EPH4 DMSO and the house keeping gene beta actin. Bars represent 2 biological replicates and 3 technical replicates. All statistical analysis are student's t-test carried out on GraphPad. Reactions were carried out on the Quantstudio 6 platform using Sybr Green PCR Master Mix (Applied Biosystems, #4309155) Statistically significant differences for cell line treatment groups were considered with a one-way Anova p-value lower than 0.05 (p<0.05).
It's been previously shown that BPTF inhibition was associated with alteration to lineage commitment and stem cell maintenance. Loss of BPTF expression in a mixed population of Krt5-expressing mammary stem cells induced differentiation, a process that was accompanied by changes to chromatin accessibility and altered gene expression activation. The effects of the BPTF inhibitors described herein were investigated in mammary luminal cells.

BPTF bromodomain = target: T1, BPTF bromodomain (Homo sapiens, UniProt Q12830); experiment: BPTF AlphaScreen competitive inhibition assay; format: binding
T1 construct: 30 nM for His9-tagged BPTF bromodomain and 50 nM for the biotinylated peptide were used; made in house
Procedure: (§3) General Procedure for AlphaScreen Assay.^36 Unlabeled His9-tagged BPTF and BRD4 D1 were expressed and purified as described previously.^36 The AlphaScreen assay procedures for BPTF and BRD4 bromodomains were adapted from the manufacturers protocol (PerkinElmer, USA). […] The biotinylated Histone H4 KAc5,8,12,16 peptide was purchased from EpiCypher, with the sequence:
(§4) All reagents were diluted in the assay buffer (50 mM HEPES-Na^+ (ChemImpex), 100 mM NaCl (SigmaAldrich), 0.05% CHAPS (RPI), 0.1% BSA (SigmaAldrich), pH 7.4). The final assay concentrations (after the addition of all assay components) of 30 nM for His9-tagged BPTF bromodomain and 50 nM for the biotinylated peptide were used. […] The plate was sealed and kept at room temperature for 30 min, followed by the addition of 5 μL of the biotinylated peptide. 5 μL of nickel chelate acceptor beads was added to each well under low light conditions (<100 lux), to a final concentration of 20 μg/mL, and the plate was incubated at room temperature in the dark for 30 minutes. This was followed by the addition of 5 μL (20 μg/mL final concentration) of streptavidin donor beads in low light conditions. After incubation for 30 min in the dark, the plate was read in AlphaScreen mode using a PerkinElmer EnSpire plate reader. […] IC50 values were calculated in GraphPad Prism 5 using sigmoidal 4-parameter logistic (4PL) curve

PCAF [4] = target: PCAF (Homo sapiens, UniProt Q92831); conditions: previously reported; cited from earlier work
Target sequence in this assay (Q92831 whole entry): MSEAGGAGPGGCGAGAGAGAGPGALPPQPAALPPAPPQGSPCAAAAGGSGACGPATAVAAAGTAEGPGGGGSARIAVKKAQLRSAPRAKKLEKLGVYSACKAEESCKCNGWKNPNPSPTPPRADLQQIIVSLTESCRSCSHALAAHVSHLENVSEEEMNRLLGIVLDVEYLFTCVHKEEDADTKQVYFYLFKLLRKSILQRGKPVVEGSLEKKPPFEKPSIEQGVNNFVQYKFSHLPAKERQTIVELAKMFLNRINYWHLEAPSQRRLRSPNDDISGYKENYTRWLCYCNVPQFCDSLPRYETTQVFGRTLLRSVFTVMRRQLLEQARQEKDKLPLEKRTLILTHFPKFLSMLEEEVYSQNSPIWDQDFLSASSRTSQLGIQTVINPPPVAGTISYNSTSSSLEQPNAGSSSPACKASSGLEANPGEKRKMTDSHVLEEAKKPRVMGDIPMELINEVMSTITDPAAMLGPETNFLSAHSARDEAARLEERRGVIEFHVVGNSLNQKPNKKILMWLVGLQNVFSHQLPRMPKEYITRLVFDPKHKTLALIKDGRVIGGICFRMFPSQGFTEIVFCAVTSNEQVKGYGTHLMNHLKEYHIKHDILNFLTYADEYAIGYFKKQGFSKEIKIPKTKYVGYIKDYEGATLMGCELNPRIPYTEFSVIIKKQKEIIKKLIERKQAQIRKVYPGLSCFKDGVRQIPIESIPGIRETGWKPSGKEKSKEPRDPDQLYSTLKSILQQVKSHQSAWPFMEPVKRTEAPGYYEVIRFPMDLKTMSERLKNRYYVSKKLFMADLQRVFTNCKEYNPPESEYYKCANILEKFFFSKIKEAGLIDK

BRD9 = target: T2, BRD9 (Homo sapiens, UniProt Q9H8M2); conditions: previously reported; cited from earlier work
T2 sequence (Q9H8M2 1-597): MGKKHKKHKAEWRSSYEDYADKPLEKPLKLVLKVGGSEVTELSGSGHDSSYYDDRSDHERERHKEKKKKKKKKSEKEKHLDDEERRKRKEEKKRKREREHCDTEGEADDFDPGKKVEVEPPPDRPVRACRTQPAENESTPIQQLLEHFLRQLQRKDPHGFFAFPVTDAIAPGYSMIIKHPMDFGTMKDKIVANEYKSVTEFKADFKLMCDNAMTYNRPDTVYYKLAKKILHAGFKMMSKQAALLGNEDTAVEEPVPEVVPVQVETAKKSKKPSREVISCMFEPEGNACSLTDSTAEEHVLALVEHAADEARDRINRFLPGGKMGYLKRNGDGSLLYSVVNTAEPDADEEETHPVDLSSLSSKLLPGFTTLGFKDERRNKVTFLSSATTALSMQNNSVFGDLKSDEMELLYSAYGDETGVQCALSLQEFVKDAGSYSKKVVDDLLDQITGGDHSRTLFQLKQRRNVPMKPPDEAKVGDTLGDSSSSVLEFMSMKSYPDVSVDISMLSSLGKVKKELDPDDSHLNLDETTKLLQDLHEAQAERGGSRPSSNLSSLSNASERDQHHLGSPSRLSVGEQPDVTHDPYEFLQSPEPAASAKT

PCAF [5] = target: T3, PCAF (Homo sapiens, UniProt Q92831); experiment: PrOF NMR titration, 5FW-PCAF; format: binding; conditions: 5FW-labeled protein
T3 construct: three class I bromodomains, BPTF, PCAF, CECR2 and one class II bromodomain, BRD4(1) were fluorine-labelled; made in house
T3 sequence (Q92831 723-827): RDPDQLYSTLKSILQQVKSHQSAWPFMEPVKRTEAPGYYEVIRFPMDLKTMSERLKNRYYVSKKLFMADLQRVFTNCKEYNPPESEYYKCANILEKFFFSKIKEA
Procedure: (§5) Protein-Observed Fluorine (PrOF) NMR. […] 40-50 μM of protein in 50 mM TRIS, 100 mM NaCl, and pH 7.4 was diluted by adding 25 μL of D2O and 2 μL of 0.1% TFA for NMR locking and referencing purposes, respectively. […] Ligands were titrated and the change in chemical shift relative to the control sample was plotted as a function of ligand concentration to generate binding isotherms. The data was processed in Mestrenova and isotherms were fit using GraphPad Prism with the equation below. Δδobs is the change in chemical shift, [L] is the total ligand concentration, and [P] is the total protein concentration:
(§6) The tryptophan residue in the WPF shelf of three class I bromodomains, BPTF, PCAF, CECR2 and one class II bromodomain, BRD4(1) were fluorine-labelled (FIG. 4A) and the chemical shift perturbation on titrating in BZ1 was observed.

[6] = format: physicochemical
Procedure: UV-Vis Methods. Compounds were diluted in DMSO at a top concentration of 100 mM. 2-fold serial dilutions in DMSO where performed followed by 1000-fold dilution into phosphate saline buffer (PBS) to get a final top concentration of 100 μM in 0.1% DMSO for each compound. UV-Vis measurements at 254 nm were taken on a Biomate 3S Spectrophotometer.

GCN5L2 = target: T4, GCN5L2 (Homo sapiens, UniProt Q92830); experiment: BROMOscan, GCN5L2; format: binding; conditions: BROMOscan one-point measurement at 140 nM
T4 construct: off-target class I (PCAF, GCN5L2, CECR2,) and class IV (BRD7, BRD9) bromodomains and BRD4(1); purchased
T4 sequence (Q92830 728-832 limits assumed): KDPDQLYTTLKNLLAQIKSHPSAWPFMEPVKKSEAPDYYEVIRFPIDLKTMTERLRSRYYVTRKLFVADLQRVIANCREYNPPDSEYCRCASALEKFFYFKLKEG
Source text: (§2) Based on the preliminary assessment of BPTF selectivity and affinity of BZ1 by PrOF NMR and AlphaScreen competition assays, the ligand was characterized using a commercial BROMOscan assay. […]. Given the low concentration of ligand and protein used, AlphaScreen can be used to estimate K values as was previously the case for characterizing BRD4-ligand interactions, however the assay for BPTF may slightly underestimate the affinity. […] […]. Recently reported pyridazinone-based inhibitors also bind to these proteins and BRD9 was reported as the closest off-target for TP-238. These studies supported good on target-BPTF inhibition, and identified several off-targets bromodomains for a more quantitative selectivity analysis.

CECR2 [7] = target: T5, CECR2 (Homo sapiens, UniProt Q9BXF3); experiment: BROMOscan, CECR2; format: binding; parameters: off-target class I (PCAF, GCN5L2, CECR2,) and class IV (BRD7, BRD9) bromodomains and BRD4(1); purchased; conditions: BROMOscan one-point measurement at 140 nM
Source text: as §2
Target sequence in this assay (Q9BXF3 434-538 limits assumed): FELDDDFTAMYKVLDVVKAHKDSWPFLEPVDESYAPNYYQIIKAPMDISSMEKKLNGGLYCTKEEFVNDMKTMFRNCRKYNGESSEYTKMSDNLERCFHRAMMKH

CECR2 [8] = target: T5, CECR2; experiment: PrOF NMR titration, 5FW-CECR2; format: binding; parameters: three class I bromodomains, BPTF, PCAF, CECR2 and one class II bromodomain, BRD4(1) were fluorine-labelled; made in house; conditions: 5FW-labeled protein
Target sequence in this assay (Q9BXF3 434-538): as the sequence (Q9BXF3 434-538 limits assumed) above
Procedure: as §5, §6

BRD4(1) [9] = target: T6, BRD4(1) (Homo sapiens, UniProt O60885); experiment: PrOF NMR titration, 5FW-BRD4(1); format: binding; parameters: three class I bromodomains, BPTF, PCAF, CECR2 and one class II bromodomain, BRD4(1) were fluorine-labelled; made in house; conditions: 5FW-labeled protein
Procedure: as §5, §6

Eph4 cells = conditions: 5 μM
Procedure: Cytotoxicity experiments with Eph4 cells. […] Media containing each condition were changed every 12 hours. […] Cells were also stained with Live/Dead Violet (Thermo Scientific, #L34964) in accordance to manufacturers specifications. All flow was performed on a Macsquant 10 (Miltenyl Biotec) and analyzed on FlowJo (TreeStar/BD).

BPTF = target: T7, BPTF (Homo sapiens, UniProt Q12830); experiment: BROMOscan, BPTF; format: binding
T7 construct: Kd values for BZ1 with BPTF and off-target class I (PCAF, GCN5L2, CECR2,) and class IV (BRD7, BRD9) bromodomains; purchased

PCAF [10] = target: T8, PCAF (Homo sapiens, UniProt Q92831); experiment: BROMOscan, PCAF; format: binding
T8 construct: off-target class I (PCAF, GCN5L2, CECR2,) and class IV (BRD7, BRD9) bromodomains and BRD4(1); purchased
T8 sequence (Q92831 723-827 limits assumed): T3 sequence (Q92831 723-827)
Procedure: Given that these measurements were only estimates of affinity, a full titration was carried out for five additional bromodomains (FIG. 5B).

BRD4(1) [11] = target: T6, BRD4(1); experiment: BRD4(1) AlphaScreen competitive inhibition assay; format: binding; parameters: Unlabeled His9-tagged BPTF and BRD4 D1 were expressed and purified as described previously; made in house
Procedure: as §3, §4

[12] = disclosed by the structural genomics consortium; cited from earlier work
CECR2 [13] = target: T5, CECR2; conditions: disclosed by the structural genomics consortium; cited from earlier work
Target sequence in this assay (Q9BXF3 whole entry): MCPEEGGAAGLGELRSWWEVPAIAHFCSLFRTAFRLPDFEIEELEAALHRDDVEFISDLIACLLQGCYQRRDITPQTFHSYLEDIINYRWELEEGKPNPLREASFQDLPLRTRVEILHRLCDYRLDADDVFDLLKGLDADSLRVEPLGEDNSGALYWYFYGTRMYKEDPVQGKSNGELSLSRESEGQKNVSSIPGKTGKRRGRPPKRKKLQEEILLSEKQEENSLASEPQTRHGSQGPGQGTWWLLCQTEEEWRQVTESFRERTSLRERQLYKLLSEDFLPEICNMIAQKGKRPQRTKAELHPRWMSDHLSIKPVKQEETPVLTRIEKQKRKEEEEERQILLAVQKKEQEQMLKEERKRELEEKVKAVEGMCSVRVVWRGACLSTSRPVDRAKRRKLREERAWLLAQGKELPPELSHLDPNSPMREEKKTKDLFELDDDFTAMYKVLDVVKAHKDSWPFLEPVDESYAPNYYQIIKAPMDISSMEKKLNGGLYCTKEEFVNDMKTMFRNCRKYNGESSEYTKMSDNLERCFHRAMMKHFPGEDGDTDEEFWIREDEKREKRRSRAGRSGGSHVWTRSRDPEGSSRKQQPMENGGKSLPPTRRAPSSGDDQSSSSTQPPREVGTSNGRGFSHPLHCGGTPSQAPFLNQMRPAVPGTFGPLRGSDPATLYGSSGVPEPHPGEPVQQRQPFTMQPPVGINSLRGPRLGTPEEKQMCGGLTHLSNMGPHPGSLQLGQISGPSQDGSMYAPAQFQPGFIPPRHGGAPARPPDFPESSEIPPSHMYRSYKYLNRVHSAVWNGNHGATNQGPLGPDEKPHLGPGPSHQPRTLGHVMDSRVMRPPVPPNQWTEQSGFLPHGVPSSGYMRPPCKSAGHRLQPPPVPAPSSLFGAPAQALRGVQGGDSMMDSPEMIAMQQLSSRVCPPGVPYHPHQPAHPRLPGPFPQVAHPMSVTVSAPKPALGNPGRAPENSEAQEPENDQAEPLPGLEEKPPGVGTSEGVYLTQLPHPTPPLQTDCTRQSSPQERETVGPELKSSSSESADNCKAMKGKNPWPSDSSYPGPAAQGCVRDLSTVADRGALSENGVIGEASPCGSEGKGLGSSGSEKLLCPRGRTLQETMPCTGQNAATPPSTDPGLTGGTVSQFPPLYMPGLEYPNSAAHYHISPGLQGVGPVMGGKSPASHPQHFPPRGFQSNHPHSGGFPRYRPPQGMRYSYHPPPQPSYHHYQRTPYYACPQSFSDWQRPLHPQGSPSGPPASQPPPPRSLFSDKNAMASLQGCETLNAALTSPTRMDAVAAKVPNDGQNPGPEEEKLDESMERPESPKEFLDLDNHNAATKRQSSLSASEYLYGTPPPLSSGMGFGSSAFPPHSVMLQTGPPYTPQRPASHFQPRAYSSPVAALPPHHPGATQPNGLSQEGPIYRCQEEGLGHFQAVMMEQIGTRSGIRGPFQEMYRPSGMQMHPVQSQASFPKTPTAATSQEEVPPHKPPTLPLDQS

COC(=O)c1cccc(NC(=O)N[C@H]2CCN(c3ccnc(Nc4ccc(F)cc4)n3)C2)c1 [AU1, reference compound]
concentration at which toxicity starts (4T1 cells [1]): above 16 μM | sensitization of 4T1 cells to doxorubicin (4T1 cells [2]): synergize with chemotherapy drug doxorubicin | further toxicity in BPTF knockdown cells [3]: Additional toxicity was observed | Sfn mRNA level (Sfn): upregulated Sfn but did not reach a high enough level of statistical significance

Cn1ncc(Nc2ccccc2)c(Cl)c1=O [Compound 6, 4-chloro-2-methyl-5-(phenylamino)pyridazin-3(2H)-one]
improvement in affinity compared to previous aliphatic amine analogues (BPTF bromodomain): 10 fold | affinity for PCAF (PCAF [4]): 10 µM | affinity for BRD9 (BRD9): 2.5 µM

Cn1ncc(Nc2ccc(CCN)cc2)c(Cl)c1=O [Compound 18, 5-((4-(2-aminoethyl)phenyl)amino)-4-chloro-2-methylpyridazin-3(2H)-one]
chemical exchange regime with PCAF (PCAF [5]): slow exchange regime stoichiometric titration | sensitization of 4T1 cells to doxorubicin (4T1 cells [2]; listed as BZ1): synergize with chemotherapy drug doxorubicin; also recorded: sensitized 4T1 cells to doxorubicin | solubility [6]: ≥ 100 µM | inhibition of GCN5L2 (GCN5L2): lower levels of inhibition | inhibition of CECR2 (CECR2 [7]): lower levels of inhibition | chemical exchange regime with CECR2 (CECR2 [8]): intermediate chemical exchange | chemical exchange regime with BRD4(1) (BRD4(1) [9]): fast-intermediate exchange

CN(C)CCc1ccc(Nc2cnn(C)c(=O)c2Cl)cc1 [Compound 19, 4-chloro-5-((4-(2-(dimethylamino)ethyl)phenyl)amino)-2-methylpyridazin-3(2H)-one]
sensitization of 4T1 cells to doxorubicin (4T1 cells [2]): synergize with chemotherapy drug doxorubicin; also recorded: sensitized 4T1 cells to doxorubicin | less effective than BZ1 (4T1 cells [2]; dose dependence experiment with doxorubicin): 2-4 fold | Sfn mRNA level (Sfn): statistically significant increase | solubility [6]: ≥ 100 µM | caspase activation (Eph4 cells): lack of caspase activation

CN(C)CCc1ccc(Nc2c(Cl)cnn(C)c2=O)cc1 [Compound 20, 5-chloro-4-((4-(2-(dimethylamino)ethyl)phenyl)amino)-2-methylpyridazin-3(2H)-one]
IC50 (BPTF bromodomain): 10000 nM | weaker affinity than 18 (BPTF bromodomain): 140 fold | L.E. (ligand efficiency) (BPTF bromodomain; from BPTF AlphaScreen): 0.32 | sensitization of 4T1 cells to doxorubicin (4T1 cells [2]): did not | Sfn mRNA level (Sfn): not significantly affected | solubility [6]: ≥ 100 µM

C#CCn1ncc(Nc2ccc(CN)cc2)c(Cl)c1=O [Compound 24, 5-((4-(aminomethyl)phenyl)amino)-4-chloro-2-(prop-2-yn-1-yl)pyridazin-3(2H)-one]
IC50 (BPTF bromodomain): 380 nM | Kd (BPTF): 200 nM | Kd (PCAF [10]): 230 nM | IC50 (BRD4(1) [11]): 71000 nM

Cc1c(Nc2ccc(S(=O)(=O)N3CCN(C)CC3)cc2F)nc2ccc(-c3cnn(C4CC4)c3)cn2c1=O [NVS-BPTF-1]
solubility and ADME properties [12]: poor solubility and ADME properties

CN(C)CCCOc1ccc(-c2cc(NCCCn3cccn3)nc(S(C)(=O)=O)n2)cc1 [TP-238]
higher affinity for CECR2 over BPTF (CECR2 [13]): 12 fold
